Measurements reported in ChEMBL document CHEMBL1146065, “Structure-based optimization of azole antifungal agents by CoMFA, CoMSIA, and molecular docking” (2006).
Converted amounts (≈) assume the structure as drawn.

How the values were obtained:
Cryptococcus neoformans = experiment: Antifungal activity against Cryptococcus neoformans; type: functional
Microsporum = experiment: Antifungal activity against Microsporum lanosum; type: functional
Nannizzia gypsea = experiment: Antifungal activity against Microsporum gypseum; type: functional
Candida parapsilosis = experiment: Antifungal activity against Candida parapsilosis; type: functional; details: Lodderomyces parapsilosis
Trichophyton violaceum = experiment: Antifungal activity against Trichophyton violaceum; type: functional
Trichophyton benhamiae = experiment: Antifungal activity against Trichophyton mentagrophytes; type: functional, Arthroderma benhamiae
Candida albicans = experiment: Antifungal activity against Candida albicans; type: functional
Sporothrix schenckii = experiment: Antifungal activity against Sporothrix schenckii; type: functional
Epidermophyton floccosum = experiment: Antifungal activity against Epidermophyton floccosum; type: functional
Trichophyton rubrum = experiment: Antifungal activity against Trichophyton rubrum; type: functional
Aspergillus fumigatus = experiment: Antifungal activity against Aspergillus fumigatus; type: functional
Fonsecaea pedrosoi = experiment: Antifungal activity against Fonsecaea pedrosoi; type: functional
Candida tropicalis = experiment: Antifungal activity against Candida tropicalis; type: functional

SMILES | MIC80 (Cryptococcus neoformans) [µg/mL] | MIC80 (Microsporum) [µg/mL] | MIC80 (Nannizzia gypsea) [µg/mL] | MIC80 (Candida parapsilosis) [µg/mL] | MIC80 (Trichophyton violaceum) [µg/mL] | MIC80 (Trichophyton benhamiae) [µg/mL] | MIC80 (Candida albicans) [µg/mL] | MIC80 (Sporothrix schenckii) [µg/mL] | MIC80 (Epidermophyton floccosum) [µg/mL] | MIC80 (Trichophyton rubrum) [µg/mL] | MIC80 (Aspergillus fumigatus) [µg/mL] | MIC80 (Fonsecaea pedrosoi) [µg/mL] | MIC80 (Candida tropicalis) [µg/mL]
OC(Cn1cncn1)(Cn1cncn1)c1ccc(F)cc1F [FLUCONAZOLE] | 16 (≈ 52.2 µM) | > 32 | 8 (≈ 26.1 µM) | 0.5 (≈ 1.63 µM) | 32 (≈ 104 µM) | > 32 | 0.25 (≈ 0.816 µM) | > 64 | > 32 | 8 (≈ 26.1 µM) | 32 (≈ 104 µM) | 64 (≈ 209 µM) | 0.5 (≈ 1.63 µM)
CN(C/C=C/C#CC(C)(C)C)Cc1cccc2ccccc12 [TERBINAFINE] | 4 (≈ 13.7 µM) | 32 (≈ 110 µM) | 0.5 (≈ 1.72 µM) | 16 (≈ 54.9 µM) | 4 (≈ 13.7 µM) | > 32 | 16 (≈ 54.9 µM) | 2 (≈ 6.86 µM) | > 32 | ≤ 0.125 | 0.25 (≈ 0.858 µM) | ≤ 0.125 | 16 (≈ 54.9 µM)
CN(Cc1ccc(Cl)c(Cl)c1)CC(O)(Cn1cncn1)c1ccc(F)cc1F (stereo unspecified) | ≤ 0.125 | 8 (≈ 18.7 µM) | 16 (≈ 37.4 µM) | 1 (≈ 2.34 µM) | 4 (≈ 9.36 µM) | < 0.0625 | 0.016 (≈ 0.0374 µM) | 32 (≈ 74.9 µM) | < 0.0625 | ≤ 0.125 | 4 (≈ 9.36 µM) | ≤ 0.125 | ≤ 0.125
CN(Cc1cccc(I)c1)CC(O)(Cn1cncn1)c1ccc(F)cc1F (stereo unspecified) | ≤ 0.125 | < 0.0625 | 0.125 (≈ 0.258 µM) | 1 (≈ 2.06 µM) | < 0.0625 | < 0.0625 | 1 (≈ 2.06 µM) | 64 (≈ 132 µM) | < 0.0625 | ≤ 0.125 | 8 (≈ 16.5 µM) | ≤ 0.125 | ≤ 0.125
CN(Cc1ccc(NC(=O)c2ccc([N+](=O)[O-])cc2)cc1)CC(O)(Cn1cncn1)c1ccc(F)cc1F (stereo unspecified) | 0.5 (≈ 0.957 µM) | 4 (≈ 7.66 µM) | – | 0.125 (≈ 0.239 µM) | – | – | 0.0625 (≈ 0.12 µM) | – | – | 0.5 (≈ 0.957 µM) | > 64 | 0.25 (≈ 0.478 µM) | 0.5 (≈ 0.957 µM)
CN(Cc1ccccc1F)CC(O)(Cn1cncn1)c1ccc(F)cc1F (stereo unspecified) | 0.5 (≈ 1.33 µM) | 0.5 (≈ 1.33 µM) | 8 (≈ 21.3 µM) | ≤ 0.125 | 2 (≈ 5.31 µM) | < 0.0625 | 0.5 (≈ 1.33 µM) | 64 (≈ 170 µM) | < 0.0625 | 32 (≈ 85 µM) | 8 (≈ 21.3 µM) | 1 (≈ 2.66 µM) | 0.25 (≈ 0.664 µM)
CN(Cc1ccc(I)cc1)CC(O)(Cn1cncn1)c1ccc(F)cc1F (stereo unspecified) | ≤ 0.125 | < 0.0625 | < 0.0625 | 0.25 (≈ 0.516 µM) | < 0.0625 | < 0.0625 | 0.032 (≈ 0.0661 µM) | 16 (≈ 33 µM) | < 0.0625 | ≤ 0.125 | ≤ 0.125 | ≤ 0.125 | ≤ 0.125
CN(Cc1ccc(NC(=O)c2cccc([N+](=O)[O-])c2)cc1)CC(O)(Cn1cncn1)c1ccc(F)cc1F (stereo unspecified) | 0.5 (≈ 0.957 µM) | 8 (≈ 15.3 µM) | – | 16 (≈ 30.6 µM) | – | – | 16 (≈ 30.6 µM) | – | – | 0.25 (≈ 0.478 µM) | 64 (≈ 122 µM) | 0.5 (≈ 0.957 µM) | 4 (≈ 7.66 µM)
CN(Cc1ccc(NC(=O)c2ccc(Br)cc2)cc1)CC(O)(Cn1cncn1)c1ccc(F)cc1F (stereo unspecified) | 0.125 (≈ 0.225 µM) | 0.25 (≈ 0.449 µM) | – | 0.016 (≈ 0.0288 µM) | – | – | 0.008 (≈ 0.0144 µM) | – | – | ≤ 0.125 | 16 (≈ 28.8 µM) | ≤ 0.125 | 0.016 (≈ 0.0288 µM)
CN(Cc1ccc(NC(=O)c2ccccc2)cc1)CC(O)(Cn1cncn1)c1ccc(F)cc1F (stereo unspecified) | 1 (≈ 2.09 µM) | 4 (≈ 8.38 µM) | – | 0.0625 (≈ 0.131 µM) | – | – | 0.031 (≈ 0.0649 µM) | – | – | 0.5 (≈ 1.05 µM) | 32 (≈ 67 µM) | 1 (≈ 2.09 µM) | 0.125 (≈ 0.262 µM)
CN(Cc1ccc(F)cc1Br)CC(O)(Cn1cncn1)c1ccc(F)cc1F (stereo unspecified) | ≤ 0.125 | 4 (≈ 8.79 µM) | 32 (≈ 70.3 µM) | 0.25 (≈ 0.549 µM) | 2 (≈ 4.39 µM) | 0.125 (≈ 0.275 µM) | 0.032 (≈ 0.0703 µM) | 64 (≈ 141 µM) | < 0.0625 | 1 (≈ 2.2 µM) | 4 (≈ 8.79 µM) | 0.25 (≈ 0.549 µM) | ≤ 0.125
CC(=O)N1CCN(c2ccc(OCC3COC(Cn4ccnc4)(c4ccc(Cl)cc4Cl)O3)cc2)CC1 (stereo unspecified) [KETOCONAZOLE] | ≤ 0.125 | < 0.0625 | < 0.0625 | ≤ 0.125 | 0.25 (≈ 0.47 µM) | < 0.0625 | 0.0625 (≈ 0.118 µM) | 0.5 (≈ 0.941 µM) | < 0.0625 | ≤ 0.125 | 1 (≈ 1.88 µM) | ≤ 0.125 | ≤ 0.125
Cc1ccc(C(=O)Nc2ccc(CN(C)CC(O)(Cn3cncn3)c3ccc(F)cc3F)cc2)cc1 (stereo unspecified) | 0.5 (≈ 1.02 µM) | 2 (≈ 4.07 µM) | – | 0.031 (≈ 0.0631 µM) | – | – | 0.016 (≈ 0.0326 µM) | – | – | ≤ 0.125 | 32 (≈ 65.1 µM) | 0.25 (≈ 0.509 µM) | 0.016 (≈ 0.0326 µM)
CN(Cc1ccc(NC(=O)c2ccc(I)cc2)cc1)CC(O)(Cn1cncn1)c1ccc(F)cc1F (stereo unspecified) | ≤ 0.031 | ≤ 0.125 | – | 0.5 (≈ 0.829 µM) | – | – | 0.0625 (≈ 0.104 µM) | – | – | ≤ 0.125 | > 64 | ≤ 0.125 | 0.25 (≈ 0.414 µM)
CN(Cc1ccc(Br)cc1F)CC(O)(Cn1cncn1)c1ccc(F)cc1F (stereo unspecified) | ≤ 0.125 | 1 (≈ 2.2 µM) | 32 (≈ 70.3 µM) | ≤ 0.125 | 2 (≈ 4.39 µM) | < 0.0625 | 0.032 (≈ 0.0703 µM) | 64 (≈ 141 µM) | < 0.0625 | 0.25 (≈ 0.549 µM) | 0.5 (≈ 1.1 µM) | ≤ 0.125 | ≤ 0.125
CN(Cc1ccccc1Cl)CC(O)(Cn1cncn1)c1ccc(F)cc1F (stereo unspecified) | ≤ 0.125 | 0.25 (≈ 0.636 µM) | 4 (≈ 10.2 µM) | 0.25 (≈ 0.636 µM) | 0.5 (≈ 1.27 µM) | < 0.0625 | 0.032 (≈ 0.0815 µM) | 32 (≈ 81.5 µM) | < 0.0625 | ≤ 0.125 | 8 (≈ 20.4 µM) | 0.25 (≈ 0.636 µM) | ≤ 0.125
CN(Cc1cc(F)ccc1Br)CC(O)(Cn1cncn1)c1ccc(F)cc1F (stereo unspecified) | ≤ 0.125 | 8 (≈ 17.6 µM) | 32 (≈ 70.3 µM) | ≤ 0.125 | 4 (≈ 8.79 µM) | 0.5 (≈ 1.1 µM) | 0.032 (≈ 0.0703 µM) | 64 (≈ 141 µM) | < 0.0625 | 0.5 (≈ 1.1 µM) | 4 (≈ 8.79 µM) | 2 (≈ 4.39 µM) | ≤ 0.125
